Measurements as given in patent US6787651B2, “Substituted indoles, pharmaceutical compounds containing such indoles and their use as PPAR-γ binding agents” (SmithKline Beecham Corporation, priority 2000, dated 2004).
Like-named read-outs stand apart in the source and are kept apart here.

Assays:
[1] = target: T1, PPARγ ligand binding domain (LBD) (amino acids 195-475) (Homo sapiens, UniProt P37231); test: PPAR-γ binding assay (spin plate / gel filtration binding assay, displacement of [3H]BRL 49653)
T1 construct: polyHis; made in house; host or cells: Escherichia coli
T1 sequence (P37231 195-475 isoform P37231-2): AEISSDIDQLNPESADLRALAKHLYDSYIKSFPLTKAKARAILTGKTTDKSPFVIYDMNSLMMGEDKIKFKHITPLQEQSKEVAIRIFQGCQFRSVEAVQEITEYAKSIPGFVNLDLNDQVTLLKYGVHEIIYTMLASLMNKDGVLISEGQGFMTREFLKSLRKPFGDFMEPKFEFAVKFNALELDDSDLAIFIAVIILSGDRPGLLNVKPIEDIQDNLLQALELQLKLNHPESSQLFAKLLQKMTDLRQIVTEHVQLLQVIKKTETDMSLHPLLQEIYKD
Method: The activity of a given compound in binding to PPAR-γ can be assayed routinely according to procedures known in the art. […] The PPAR-γ binding assay described below was used to determine the PPAR-γ binding activities of the compounds of the invention.
Compounds were tested for their ability to bind to PPARγ using a spin plate assay (gel filtration binding assay). […] Each compound was tested in triplicate. […] The plates were centrifuged (Beckman GS-6R) at 2500 rpm for 5 minutes, 170 μl Scitisafe® scintillation fluid (Fisher) was added to each well, the plates were sealed, and after 1 hour, were counted in a Wallac MicroBeta counter. The amount of nonspecific binding, as assessed by control wells containing 10 μM of the corresponding unlabeled ligand, was subtracted from each data point. For each compound tested, the data was averaged and plots of ligand concentration versus CPM of radioligand bound were constructed. Apparent IC50 values were estimated from nonlinear least-squares fit of the data assuming simple competitive binding.

[2] = read-out: IC50 range in the PPAR-γ Binding Assay

Row | SMILES | melting point | IC50 [1, 2] | IC50 [1]
1 | COc1cccc(Cn2c(C(=O)O)c(-c3ccc(OCC4CC4)cc3)c3cc(OCc4ccccc4)ccc32)c1 [Example 229, 5-(Benzyloxy)-3-[4-(cyclopropylmethoxy)phenyl]-1-(3-methoxybenzyl)-1H-indole-2-carboxylic acid] | 185 to 187 °C |  | 
2 | COc1ccc(Cc2c(C(=O)O)n(CC3CC3)c3ccccc23)cc1 [Example 230, 1-(Cyclopropylmethyl)-3-[(4-methoxyphenyl)methyl]indole-2-carboxylic acid] | 162 to 163 °C | 0.01 to 10 µM | 
3 | O=C(O)c1c(C=C2CC2)c2ccccc2n1Cc1cccc(C(F)(F)F)c1 [Example 231, 3-(Cyclopropylidenemethyl)-1-[3-(trifluoromethyl)benzyl]-1H-indole-2-carboxylic acid] | 148 to 150 °C | 0.0001 to 0.00999 µM | 
4 | O=C(O)c1c(-c2cc3ccccc3o2)c2ccccc2n1Cc1cccc(C(F)(F)F)c1 [Example 235] | 211 to 214 °C | 0.0001 to 0.00999 µM | 
5 | CC(=O)c1ccc(-c2c(C(=O)O)n(Cc3cccc(C(F)(F)F)c3)c3ccccc23)s1 [Example 236] | 212 to 214 °C | 0.0001 to 0.00999 µM | 
6 | O=C(O)c1c(-c2ccco2)c2ccccc2n1Cc1cccc(C(F)(F)F)c1 [Example 237] | 172 to 173 °C | 0.0001 to 0.00999 µM | 
7 | COc1cccc(Cn2c(C(=O)O)c(-c3ccc(-c4ccco4)cc3)c3ccccc32)c1 [Example 240] | 190 to 192 °C | 0.0001 to 0.00999 µM | 
8 | COc1ccc(C(=O)c2c(C(=O)O)n(Cc3cccc(OC)c3)c3ccccc23)cc1 [Example 241] | 68 to 69 °C |  | 0.01 to 10 µM
9 | COc1ccc(C(=O)c2c(C(=O)O)n(Cc3cccc(C(F)(F)F)c3)c3ccccc23)cc1 [Example 242] | 215 to 216 °C |  | 0.01 to 10 µM
10 | O=C(O)c1c(/C=C/c2ccccc2)c2ccccc2n1Cc1cccc(C(F)(F)F)c1 [Example 243] | 183 to 185 °C | 0.0001 to 0.00999 µM | 
11 | O=C(O)c1c(C#Cc2ccccc2)c2ccccc2n1Cc1cccc(C(F)(F)F)c1 [Example 244] | 165 to 167 °C | 0.0001 to 0.00999 µM | 
12 | O=C(O)c1c(CC2CC2)c2ccccc2n1Cc1cccc(C(F)(F)F)c1 [Example 264] | 174 to 175 °C | 0.0001 to 0.00999 µM | 
13 | COc1cccc(Cn2c(C(=O)O)c(CC3CC3)c3ccccc32)c1 [Example 265] | 165 to 167 °C | 0.0001 to 0.00999 µM | 
14 | COc1cccc(Cn2c(C(=O)O)c(-c3ccc(C(C)(C)C)cc3)c3cc(COCC4CC4)ccc32)c1 [Example 266] | 79 to 80 °C | 0.0001 to 0.00999 µM | 
15 | COc1cccc(Cn2c(C(=O)O)c(-c3ccc(C(C)(C)C)cc3)c3cc(NC(=O)C4CC4)ccc32)c1 [Example 268] | 194 to 196 °C | 0.0001 to 0.00999 µM | 
16 | COc1cccc(Cn2c(C(=O)O)c(-c3ccc(C(C)(C)C)cc3)c3cc(NC(=O)C4CCCC4)ccc32)c1 [Example 269] | 154 to 156 °C | 0.01 to 10 µM | 
17 | COc1cccc(Cn2c(C(=O)O)c(-c3ccc(C(C)(C)C)cc3)c3cc(NC(=O)NCC4CC4)ccc32)c1 [Example 270] | 141 to 142 °C | 0.01 to 10 µM | 
18 | COc1cccc(Cn2c(C(=O)O)c(-c3ccc(C(C)(C)C)cc3)c3cc(C4CCCC4)ccc32)c1 [Example 273] | 192 to 193 °C | 0.0001 to 0.00999 µM | 
19 | COc1cccc(Cn2c(C(=O)O)c(-c3ccc(C(C)(C)C)cc3)c3cc(N(C)C(=O)C4CC4)ccc32)c1 [Example 274] | 219 to 222 °C | 0.01 to 10 µM | 
20 | COc1cccc(Cn2c(C(=O)O)c(-c3ccc(C(C)(C)C)cc3)c3cc4c(cc32)OCO4)c1 [Example 277] | 179.1 to 179.7 °C | 0.0001 to 0.00999 µM | 
21 | COc1ccc(-c2c(C(=O)O)n(CS(=O)(=O)c3ccccc3)c3ccccc23)cc1 [Example 282] | 166 to 168 °C | 0.01 to 10 µM | 
22 | CC(C)c1cccc(-c2c(C(=O)O)n(Cc3cccc(OCC4CC4)c3)c3ccccc23)c1 [Example 284] | 204 °C | 0.0001 to 0.00999 µM | 
23 | CCOc1ccc(-c2c(C(=O)O)n(Cc3ccc(F)cc3)c3c(NC(=O)C4CC4)cccc23)cc1 [Example 285] | 250 °C |  | 
24 | CCOc1ccc(-c2c(C(=O)O)n(Cc3ccc(F)cc3)c3c(N(C)C(=O)C4CC4)cccc23)cc1 [Example 286] | 128 °C | 0.01 to 10 µM | 
25 | COc1ccc(-c2c(C(=O)O)n(Cc3cccc(OCC4CC4)c3)c3ccccc23)cc1 [Example 287] | 168 °C | 0.0001 to 0.00999 µM | 

Row | SMILES | melting point | IC50 [1, 2] | IC50 [1]
26 | CC(C)(C)c1ccc(-c2c(C(=O)O)n(Cc3cccc(OCC4CC4)c3)c3ccccc23)cc1 [Example 288] | 120 °C | 0.0001 to 0.00999 µM | 
27 | CC(C)(C)c1ccc(-c2c(C(=O)O)n(Cc3cccc(OC4CCCC4)c3)c3ccccc23)cc1 [Example 289] | 159 °C | 0.0001 to 0.00999 µM | 
28 | CC(=O)c1cccc(-c2c(C(=O)O)n(Cc3cccc(OCC4CC4)c3)c3ccccc23)c1 [Example 290] | 103 °C | 0.0001 to 0.00999 µM | 
29 | COc1cccc(Cn2c(C(=O)O)c(-c3ccc(C(C)(C)C)cc3)c3cccc(NC(=O)NC4CC4)c32)c1 [Example 291] | 168 °C (dec.) | 0.01 to 10 µM | 
30 | COc1cccc(Cn2c(C(=O)O)c(-c3ccc(C(C)(C)C)cc3)c3cccc(NC(=O)C4CC4)c32)c1 [Example 292] | 151 °C | 0.01 to 10 µM | 
31 | COc1cccc(Cn2c(C(=O)O)c(-c3ccc(C(C)(C)C)cc3)c3cccc(N(C)C(=O)N(C)C4CC4)c32)c1 [Example 293] | 112 to 115 °C (dec.) | 0.01 to 10 µM | 
32 | COc1cccc(Cn2c(C(=O)O)c(-c3cccc(NC(=O)NC4CC4)c3)c3ccccc32)c1 [Example 294] | 110 °C (dec.) | 0.01 to 10 µM | 
33 | COc1cccc(Cn2c(C(=O)O)c(-c3cccc(N(C)C(=O)C4CC4)c3)c3ccccc32)c1 [Example 295] | 200 °C | 0.01 to 10 µM | 
34 | COc1cccc(Cn2c(C(=O)O)c(-c3ccc(C(C)(C)C)cc3)c3c(OCC4CC4)cccc32)c1 [Example 296] | 162 °C | 0.01 to 10 µM | 
35 | COc1ccc(Cc2c(C(=O)O)n(Cc3cccc(OCC4CC4)c3)c3ccccc23)cc1 [Example 297] | 168 to 170 °C | 0.0001 to 0.00999 µM | 
36 | CC(=O)Nc1cccc(-c2c(C(=O)O)n(Cc3cccc(OCC4CC4)c3)c3ccccc23)c1 [Example 298] | 122 to 123 °C | 0.01 to 10 µM | 
37 | Cc1cccc(-c2c(C(=O)O)n(Cc3cccc(OCC4CC4)c3)c3ccccc23)c1 [Example 299] | 58 to 60 °C | 0.0001 to 0.00999 µM | 
38 | COc1cccc(Cn2c(C(=O)O)c3c4cc(ccc42)OCCCCCCOc2cccc-3c2)c1 [Example 300] | 79 to 80 °C | 0.01 to 10 µM | 
39 | COc1ccc(-c2c(C(=O)O)n(Cc3cccc(OC)c3)c3ccc(C(C)=O)cc23)cc1 [Example 301] | 190 °C (dec.) | 0.01 to 10 µM | 
40 | COc1ccc(-c2c(C(=O)O)n(Cc3cccc(OC)c3)c3c(NC(=O)C4CC4)cccc23)cc1 [Example 302] | 210 °C (dec.) | 0.01 to 10 µM | 
41 | COc1ccc(-c2c(C(=O)O)n(Cc3cccc(OC)c3)c3c(N(C)C(=O)C4CC4)cccc23)cc1 [Example 303] | 98 °C (dec.) | 0.01 to 10 µM | 
42 | COc1cccc(Cn2c(C(=O)O)c(-c3ccc(C(=O)NC4CC4)cc3)c3ccccc32)c1 [Example 323, 3-[4-(N-cyclopropylcarbamoyl)phenyl]-1-[(3-methoxyphenyl)methyl]indole-2-carboxylic acid] | 237 °C | 0.01 to 10 µM | 
43 | COc1cccc(Cn2c(C(=O)O)c(-c3ccc(C(=O)NC4CCCC4)cc3)c3ccccc32)c1 [Example 324] | 230 °C | 0.01 to 10 µM | 
44 | COc1cccc(Cn2c(C(=O)O)c(-c3ccc(C(=O)NC4CCCCC4)cc3)c3ccccc32)c1 [Example 325] | 245 °C | 0.01 to 10 µM | 
45 | COc1cccc(Cn2c(C(=O)O)c(-c3cccc(NC(=O)C4CCCC4)c3)c3ccccc32)c1 [Example 327] | 133 °C (dec.) | 0.01 to 10 µM | 
46 | COc1cccc(Cn2c(C(=O)O)c(-c3cccc(C(=O)NC4CC4)c3)c3ccccc32)c1 [Example 328] | 204 °C | 0.01 to 10 µM | 
47 | O=C(O)c1c(-c2ccc(S(=O)(=O)C3CC3)cc2)c2ccccc2n1Cc1cccc(C(F)(F)F)c1 [Example 353, 3-[4-(Cyclopropylsulfonyl)phenyl]-1-{[3-(trifluoromethyl)phenyl]methyl}indole-2-carb-oxylic acid] |  | 0.0001 to 0.00999 µM | 
48 | COc1ccc(-c2c(C(=O)NS(=O)(=O)c3ccc(OC)cc3)n(Cc3cccc(C(F)(F)F)c3)c3ccccc23)cc1 [Example 357] |  | 0.0001 to 0.00999 µM | 
49 | COc1ccc(-c2c(C(=O)C(F)(F)F)n(Cc3cccc(C(F)(F)F)c3)c3ccccc23)cc1 [Example 360, 2,2,2-Trifluoro-1-{3-(4-methoxyphenyl)-1-[3-(trifluoromethyl)benzyl]-1H-indol-2-yl}ethanone] |  | 0.01 to 10 µM | 
